Series [1] deals with soluble human BACE1 catalytic domain (Homo sapiens (Human), UniProt P56817). Kind of series: BACE1 HTRF FRET assay. The conditions noted are these: for Ki: Ki calculated from IC50 using the Cheng-Prusoff equation. The format is biochemical. An excerpt: Na^+-Acetate pH 5.0; 1% Brij-35; Glycerol; Dimethyl Sulfoxide (DMSO); Recombinant human soluble BACE1 catalytic domain (>95% pure); APP Swedish mutant peptide substrate (QSY7-APP^swe-Eu): QSY7-[…]-Europium-amide.
A homogeneous time-resolved FRET assay can be used to determine IC50 values for inhibitors of the soluble human BACE1 catalytic domain. This assay monitors the increase of 620 nm fluorescence that resulted from BACE1 cleavage of an APPswedish APP^swe mutant peptide FRET substrate (QSY7-[…]-Europium-amide). This substrate contains an N-terminal QSY7 moiety that serves as a quencher of the C-terminal Europium fluorophore (620 nm Em). In the absence of enzyme activity, 620 nm fluorescence is low in the assay and increased linearly over 3 hours in the presence of uninhibited BACE1 enzyme Inhibition of BACE1 cleavage of the QSY7-APP^swe-Eu substrate by inhibitors is manifested as a suppression of 620 nm fluorescence.
Varying concentrations of inhibitors at 3× the final desired concentration in a volume of 10 ul are preincubated with purified human BACE1 catalytic domain (3 nM in 10 μl) for 30 minutes at 30° C. in reaction buffer containing 20 mM Na-Acetate pH 5.0, 10% glycerol, 0.1% Brij-35 and 7.5% DSMO. Reactions are initiated by addition of 10 μl of 600 nM QSY7-APP^swe-Eu substrate (200 nM final) to give a final reaction volume of […] in a 384 well Nunc HTRF plate. The reactions are incubated at 30° C. for 1.5 hours. The 620 nm fluorescence is then read on a Rubystar HTRF plate reader (BMG Labtechnologies) using a 50 millisecond delay followed by a 400 millisecond acquisition time window. Inhibitor IC50 values are derived from non-linear regression analysis of concentration response curves.

A further series has as its target human P-glycoprotein (Homo sapiens (Human), UniProt P08183). Kind of series: Pgp Mdr1 efflux ratio. Format: in vitro ADME. The conditions noted are these: for Pgp Mdr1 ER: efflux ratio, human P-glycoprotein.
Another series concerns the target human autoBACE-2 (Homo sapiens (Human), UniProt Q9Y5Z0). Kind of series: BACE-2 assay (BACE-HTRF, time-resolved endpoint proteolysis). The format is biochemical. The conditions noted are these: Ki calculated from IC50 using the Cheng-Prusoff equation; read-out: BACE2 Ki. How it is done: Inhibitor IC50s at purified human autoBACE-2 are determined in a time-resolved endpoint proteolysis assay that measures hydrolysis of the QSY7-[…]-Eu-amide FRET peptide substrate (BACE-HTRF assay). […] DMSO is present at 5% final concentration in the assay. Following laser excitation of sample wells at 320 nm, the fluorescence signal at 620 nm is collected for 400 ms following a 50 μs delay on a RUBYstar HTRF plate reader (BMG Labtechnologies). Raw RFU data is normalized to maximum (1.0 nM BACE/DMSO) and minimum (no enzyme/DMSO) RFU values. […] The Ki values are calculated from the IC50 using the Cheng-Prusoff equation.

The target of the next series is Cathepsin-D (Homo sapiens (Human), UniProt P07339). Kind of series: Cathepsin-D inhibition (selectivity). The format is biochemical.

Consider 28 molecules from US9416129B2, “Tricyclic substituted thiadiazine dioxide compounds as BACE inhibitors, compositions and their use” (Merck Sharp & Dohme Corp., priority 2012, dated 2016).

Sequence of soluble human BACE1 catalytic domain (P56817 75-416): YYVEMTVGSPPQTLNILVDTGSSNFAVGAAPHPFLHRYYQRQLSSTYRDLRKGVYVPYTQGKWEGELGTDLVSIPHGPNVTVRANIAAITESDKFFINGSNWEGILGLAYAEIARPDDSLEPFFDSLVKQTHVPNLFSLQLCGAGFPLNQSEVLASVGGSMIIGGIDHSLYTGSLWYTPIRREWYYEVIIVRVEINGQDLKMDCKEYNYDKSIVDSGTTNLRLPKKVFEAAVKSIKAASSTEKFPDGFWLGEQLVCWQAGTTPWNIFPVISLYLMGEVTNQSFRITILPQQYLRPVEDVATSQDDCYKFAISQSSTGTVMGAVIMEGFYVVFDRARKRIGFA
Sequence of human P-glycoprotein (P08183 whole entry): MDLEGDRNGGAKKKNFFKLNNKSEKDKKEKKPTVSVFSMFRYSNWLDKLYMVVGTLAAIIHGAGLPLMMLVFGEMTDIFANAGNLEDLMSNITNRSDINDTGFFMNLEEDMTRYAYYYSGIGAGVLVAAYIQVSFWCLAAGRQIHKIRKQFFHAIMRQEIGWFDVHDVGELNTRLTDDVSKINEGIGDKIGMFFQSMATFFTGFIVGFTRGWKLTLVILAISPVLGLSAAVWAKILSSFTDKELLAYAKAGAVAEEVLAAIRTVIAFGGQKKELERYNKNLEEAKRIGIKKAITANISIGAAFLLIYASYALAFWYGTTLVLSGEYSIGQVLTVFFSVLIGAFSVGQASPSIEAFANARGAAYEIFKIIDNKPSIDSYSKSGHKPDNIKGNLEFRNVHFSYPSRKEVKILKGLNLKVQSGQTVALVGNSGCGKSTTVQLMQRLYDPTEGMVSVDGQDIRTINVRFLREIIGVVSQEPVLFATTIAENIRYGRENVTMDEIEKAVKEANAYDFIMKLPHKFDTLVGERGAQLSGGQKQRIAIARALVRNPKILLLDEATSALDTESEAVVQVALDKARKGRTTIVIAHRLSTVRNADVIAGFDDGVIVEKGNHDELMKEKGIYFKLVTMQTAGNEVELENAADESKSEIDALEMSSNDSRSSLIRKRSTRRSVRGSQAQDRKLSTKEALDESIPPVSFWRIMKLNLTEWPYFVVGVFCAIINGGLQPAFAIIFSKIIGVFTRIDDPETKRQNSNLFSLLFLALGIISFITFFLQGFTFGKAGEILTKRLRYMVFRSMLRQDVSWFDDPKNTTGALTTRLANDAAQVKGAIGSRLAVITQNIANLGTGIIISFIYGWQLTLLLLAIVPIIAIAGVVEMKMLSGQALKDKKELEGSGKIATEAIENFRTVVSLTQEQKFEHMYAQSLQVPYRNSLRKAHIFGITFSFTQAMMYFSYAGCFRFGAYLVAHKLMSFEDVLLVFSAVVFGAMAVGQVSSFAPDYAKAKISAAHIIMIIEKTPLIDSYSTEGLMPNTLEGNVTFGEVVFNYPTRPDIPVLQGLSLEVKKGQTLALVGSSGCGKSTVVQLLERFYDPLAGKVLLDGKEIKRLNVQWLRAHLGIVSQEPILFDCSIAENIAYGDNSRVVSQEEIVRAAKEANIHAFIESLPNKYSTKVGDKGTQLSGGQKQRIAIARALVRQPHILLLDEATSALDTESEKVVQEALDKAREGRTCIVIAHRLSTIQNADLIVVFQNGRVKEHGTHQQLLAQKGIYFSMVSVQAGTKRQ
Sequence of human autoBACE-2 (Q9Y5Z0 63-473 limits assumed): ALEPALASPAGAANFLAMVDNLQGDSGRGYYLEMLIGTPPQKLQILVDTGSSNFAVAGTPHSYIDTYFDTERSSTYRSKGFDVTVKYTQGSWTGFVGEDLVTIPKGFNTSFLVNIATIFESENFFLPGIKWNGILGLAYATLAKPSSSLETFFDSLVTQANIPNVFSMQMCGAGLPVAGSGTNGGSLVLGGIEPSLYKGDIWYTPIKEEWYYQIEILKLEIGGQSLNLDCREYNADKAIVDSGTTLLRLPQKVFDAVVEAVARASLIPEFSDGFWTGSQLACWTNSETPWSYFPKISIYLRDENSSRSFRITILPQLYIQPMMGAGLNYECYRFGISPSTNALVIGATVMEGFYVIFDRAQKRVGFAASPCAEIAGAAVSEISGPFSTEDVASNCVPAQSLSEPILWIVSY
Sequence of Cathepsin-D (P07339 65-412, species assumed): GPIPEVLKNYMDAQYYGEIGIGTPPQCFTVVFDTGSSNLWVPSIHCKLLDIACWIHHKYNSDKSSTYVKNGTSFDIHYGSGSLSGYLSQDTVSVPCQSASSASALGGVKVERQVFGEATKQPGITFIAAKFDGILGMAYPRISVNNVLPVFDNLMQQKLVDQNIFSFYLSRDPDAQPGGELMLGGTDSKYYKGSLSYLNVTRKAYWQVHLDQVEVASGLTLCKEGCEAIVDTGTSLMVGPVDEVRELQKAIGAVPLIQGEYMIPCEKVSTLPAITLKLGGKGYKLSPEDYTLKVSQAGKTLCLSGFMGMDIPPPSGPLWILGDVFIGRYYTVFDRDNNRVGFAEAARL

For the molecule `Cc1noc(-c2cccc(-c3cc(F)c([C@]4(C)CS(=O)(=O)N(C)C(=N)N4)s3)c2)n1` [Example 38], the Ki (commonly the equilibrium dissociation constant of an inhibitor or competing ligand from its target) in series [1] is 29.1 nM; at human autoBACE-2, 3.6 nM. Moreover, on human P-glycoprotein, the “Pgp Mdr1 ER” value is 1.7.
On the same counts, the results for `CN1C(=N)N[C@](C)(c2sc(-c3cccc(-c4ncco4)c3)cc2Cl)CS1(=O)=O` [Example 6] are 4.7 nM, 1.4 nM and 0.49.
In the same order, the values of `CN1C(=N)N[C@](C)(c2sc(-c3cc(F)cc(-c4cnco4)c3)cc2F)CS1(=O)=O` [Example 25] are 12.5 nM, 4.8 nM and 1.1.
Take `CN1C(=N)N[C@](C)(c2sc3c(-c4ccc(-n5cccn5)nc4)nccc3c2Cl)CS1(=O)=O` [Example 80]: the Ki on Cathepsin-D (read-out: Cath-D Ki) amounted to 6970 nM. Besides, on Cathepsin-D (selectivity for BACE over Cathepsin-D), the “Cathepsin-D selectivity (in words)” value is on record as “good Cathepsin-D selectivity”. Moreover, in series [1], the “BACE potency (in words)” value is “good BACE potency” and the Ki is 10 nM. In addition, on human P-glycoprotein, the “Pgp susceptibility (in words)” value is recorded as “low Pgp susceptibility” and the “Pgp Mdr1 ER” value came to 0.78. Also, the Ki on human autoBACE-2 is 16 nM.
`CN1C(=N)N[C@](C)(c2sc(-c3cccc(-c4nnc(C5CC5)o4)c3)cc2F)CS1(=O)=O` [Example 18]: the Ki is 177 nM in series [1] and 4.2 nM at human autoBACE-2. The “Pgp Mdr1 ER” value at human P-glycoprotein is recorded as 0.53.
As to `CN1C(=N)N[C@](C)(c2sc(-c3cc(F)cc(-c4cnco4)c3)cc2Cl)CS1(=O)=O` [Example 23], the results for the Ki (in series [1]; on human autoBACE-2) were 11.4 nM and 4.8 nM, respectively. In addition, the “Pgp Mdr1 ER” value at human P-glycoprotein is 0.90.
On the same counts, the results for `CN1C(=N)N[C@](C)(c2sc(-c3cccc(-c4nnc(C5CC5)o4)c3)cc2Cl)CS1(=O)=O` [Example 17] are 203 nM, 2.2 nM and 1.0.
`Cc1nc(-c2cccc(-c3cc(F)c([C@]4(C)CS(=O)(=O)N(C)C(=N)N4)s3)c2)no1` [Example 42]: the inhibition constant (Ki) in series [1] is 25.4 nM; at human autoBACE-2, 1.1 nM. Moreover, at human P-glycoprotein, the “Pgp Mdr1 ER” value amounted to 1.2.
Regarding `CN1C(=N)N[C@](C)(c2sc(-c3cccc(-c4ncon4)c3)cc2F)CS1(=O)=O` [Example 47], the results for the Ki (in series [1]; at human autoBACE-2) were 3.9 nM and 0.34 nM, respectively. For the same molecule, the “Pgp Mdr1 ER” value on human P-glycoprotein is 1.7.
In the same order, the values of `CN1C(=N)N[C@](C)(c2sc(-c3cccc(-c4cnco4)c3)cc2Cl)CS1(=O)=O` [Example 11] are 1.7 nM, 2 nM and 1.3.
In the same order, the values of `CN1C(=N)N[C@](C)(c2sc(-c3cccc(-c4ccno4)c3)cc2F)CS1(=O)=O` [Example 14] are 6.9 nM, 3.5 nM and 1.6.
Consider `Cc1nc(-c2cccc(-c3cc(Cl)c([C@]4(C)CS(=O)(=O)N(C)C(=N)N4)s3)c2)no1` [Example 41], for which the Ki in series [1] is 13.4 nM; on human autoBACE-2, 0.35 nM. The “Pgp Mdr1 ER” value on human P-glycoprotein was 0.34.
In the case of `CN1C(=N)N[C@](C)(c2sc(-c3cccc(-c4nc(C5CC5)no4)c3)cc2Cl)CS1(=O)=O` [Example 39], the Ki in series [1] is 419 nM; at human autoBACE-2 it was 9.9 nM.
For the molecule `Cc1noc(-c2cc(-c3cc(Cl)c([C@]4(C)CS(=O)(=O)N(C)C(=N)N4)s3)ccn2)n1` [Example 49], the inhibition constant (Ki) in series [1] is 18.7 nM; at human autoBACE-2 it was 1.1 nM.
With `CN1C(=N)N[C@](C)(c2sc(-c3cccc(-c4cnco4)c3)cc2F)CS1(=O)=O` [Example 12], the figures for the Ki (in series [1]; on human autoBACE-2) were 3.3 nM and 3.7 nM, respectively. Further, the “Pgp Mdr1 ER” value at human P-glycoprotein is recorded as 1.8.
In the case of `COc1ccnc(N2CCN(c3nccc4c(Cl)c([C@]5(C)CS(=O)(=O)N(C)C(=N)N5)sc34)CC2)c1` [Example 121], the Ki was 1860 nM in series [1] and 1260 nM at human autoBACE-2.
For the molecule `CN1C(=N)N[C@](C)(c2sc(-c3cccc(-c4ncon4)c3)cc2Cl)CS1(=O)=O` [Example 46], the Ki in series [1] is 3.3 nM; on human autoBACE-2, 0.41 nM. For the same molecule, at human P-glycoprotein, the “Pgp Mdr1 ER” value is reported as 0.70.
Consider `CN1C(=N)N[C@](C)(c2sc(-c3cncc(-c4cnco4)c3)cc2Cl)CS1(=O)=O` [Example 20], for which the Ki in series [1] was 11.9 nM; on human autoBACE-2, 8.9 nM.
As to `CN1C(=N)N[C@](C)(c2sc(-c3cccc(-c4ccccc4)c3)cc2Cl)CS1(=O)=O` [Example 62], the Ki in series [1] is 161 nM; on human autoBACE-2 it was 1.6 nM.
In the same order, the values of `CN1C(=N)N[C@](C)(c2sc(-c3cccc(N4CCS(=O)(=O)CC4)c3)cc2Cl)CS1(=O)=O` [Example 61] are 693 nM and 42 nM.
On to `CN1C(=N)N[C@](C)(c2sc(-c3cccc(-c4ncco4)c3)cc2F)CS1(=O)=O` [Example 7], for which the Ki was 8.7 nM in series [1] and 0.73 nM at human autoBACE-2. Besides, the “Pgp Mdr1 ER” value on human P-glycoprotein is recorded as 1.7.
With `CN1C(=N)N[C@](C)(c2sc3c(-c4ccc(-c5cc(C(F)(F)F)n[nH]5)cc4)nccc3c2Cl)CS1(=O)=O` [Example 98], the Ki was 425 nM in series [1] and 6.7 nM at human autoBACE-2.
Regarding `CCCc1cnn(-c2ccc(-c3nccc4c(Cl)c([C@]5(C)CS(=O)(=O)N(C)C(=N)N5)sc34)c(F)c2)c1` [Example 117], the Ki in series [1] was 259 nM; at human autoBACE-2 it was 35 nM.
`CCc1cnn(-c2ccc(-c3nccc4c(Cl)c([C@]5(C)CS(=O)(=O)N(C)C(=N)N5)sc34)c(F)c2)c1` [Example 118]: the Ki was 229 nM in series [1] and 702 nM on human autoBACE-2.
On the same counts, the results for `CN1C(=N)N[C@](C)(c2sc3c(-c4ccc(C5CC(=O)N5)cc4)cccc3c2F)CS1(=O)=O` (stereo partly drawn) [Example 81] are 184 nM and 1720 nM.
Take `CN1C(=N)N[C@](C)(c2ncc(-c3cccc(-c4ncco4)c3)s2)CS1(=O)=O` [Example 26]: the Ki in series [1] was 43.6 nM; at human autoBACE-2, 5.7 nM.
In the same order, the values of `CN1C(=N)N[C@](C)(c2sc3c(-c4ccc(-c5cnco5)cc4F)nccc3c2Cl)CS1(=O)=O` [Example 108] are 35.2 nM and 19 nM.
Turning to `CN1C(=N)N[C@](C)(c2sc(-c3cccc(-c4nnco4)c3)cc2Cl)CS1(=O)=O` [Example 1], the values for the inhibition constant Ki (in series [1]; at human autoBACE-2) were 1.6 nM and 6 nM, respectively.
